One data set has as its target T1, Toll-like receptor 8 (Homo sapiens, UniProt Q9NR97).
T1 sequence (Q9NR97 whole entry): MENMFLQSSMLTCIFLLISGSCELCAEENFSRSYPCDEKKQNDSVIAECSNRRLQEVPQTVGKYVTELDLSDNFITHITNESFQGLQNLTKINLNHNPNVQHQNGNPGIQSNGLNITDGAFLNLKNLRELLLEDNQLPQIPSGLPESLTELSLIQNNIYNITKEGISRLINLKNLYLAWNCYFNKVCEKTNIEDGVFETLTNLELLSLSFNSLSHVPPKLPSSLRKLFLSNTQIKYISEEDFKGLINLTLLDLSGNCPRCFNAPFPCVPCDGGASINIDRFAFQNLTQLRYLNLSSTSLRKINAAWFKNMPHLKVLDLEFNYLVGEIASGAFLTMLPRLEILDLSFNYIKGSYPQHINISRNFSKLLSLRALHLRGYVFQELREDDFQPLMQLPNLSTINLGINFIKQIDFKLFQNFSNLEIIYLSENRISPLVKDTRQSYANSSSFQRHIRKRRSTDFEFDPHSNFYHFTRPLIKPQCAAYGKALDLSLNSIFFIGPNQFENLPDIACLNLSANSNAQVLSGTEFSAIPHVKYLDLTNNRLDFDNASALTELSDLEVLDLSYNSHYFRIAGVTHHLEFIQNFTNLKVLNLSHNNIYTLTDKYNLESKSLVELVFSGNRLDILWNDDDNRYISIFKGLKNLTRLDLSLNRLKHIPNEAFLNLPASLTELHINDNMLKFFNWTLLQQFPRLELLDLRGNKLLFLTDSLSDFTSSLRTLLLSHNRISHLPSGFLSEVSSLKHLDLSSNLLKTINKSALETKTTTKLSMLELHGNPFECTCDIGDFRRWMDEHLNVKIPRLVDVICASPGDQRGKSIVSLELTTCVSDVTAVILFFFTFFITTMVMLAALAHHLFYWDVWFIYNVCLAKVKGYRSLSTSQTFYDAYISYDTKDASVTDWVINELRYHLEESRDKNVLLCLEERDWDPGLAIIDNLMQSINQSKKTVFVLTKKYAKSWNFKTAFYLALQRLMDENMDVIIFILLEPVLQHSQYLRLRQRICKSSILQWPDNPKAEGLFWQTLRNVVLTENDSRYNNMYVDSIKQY
Nature of the data set: Agonist activity at TLR8 (unknown origin) expressed in human U2OS cells by luciferase reporter assay. Type of data set: cell-based. Background: Reporter assays use an easily measured gene product as a stand-in for the process of interest.

Data set [1] has as its target T2, Toll-like receptor 7 (Macaca fascicularis) (UniProt B3Y652).
T2 sequence (whole entry): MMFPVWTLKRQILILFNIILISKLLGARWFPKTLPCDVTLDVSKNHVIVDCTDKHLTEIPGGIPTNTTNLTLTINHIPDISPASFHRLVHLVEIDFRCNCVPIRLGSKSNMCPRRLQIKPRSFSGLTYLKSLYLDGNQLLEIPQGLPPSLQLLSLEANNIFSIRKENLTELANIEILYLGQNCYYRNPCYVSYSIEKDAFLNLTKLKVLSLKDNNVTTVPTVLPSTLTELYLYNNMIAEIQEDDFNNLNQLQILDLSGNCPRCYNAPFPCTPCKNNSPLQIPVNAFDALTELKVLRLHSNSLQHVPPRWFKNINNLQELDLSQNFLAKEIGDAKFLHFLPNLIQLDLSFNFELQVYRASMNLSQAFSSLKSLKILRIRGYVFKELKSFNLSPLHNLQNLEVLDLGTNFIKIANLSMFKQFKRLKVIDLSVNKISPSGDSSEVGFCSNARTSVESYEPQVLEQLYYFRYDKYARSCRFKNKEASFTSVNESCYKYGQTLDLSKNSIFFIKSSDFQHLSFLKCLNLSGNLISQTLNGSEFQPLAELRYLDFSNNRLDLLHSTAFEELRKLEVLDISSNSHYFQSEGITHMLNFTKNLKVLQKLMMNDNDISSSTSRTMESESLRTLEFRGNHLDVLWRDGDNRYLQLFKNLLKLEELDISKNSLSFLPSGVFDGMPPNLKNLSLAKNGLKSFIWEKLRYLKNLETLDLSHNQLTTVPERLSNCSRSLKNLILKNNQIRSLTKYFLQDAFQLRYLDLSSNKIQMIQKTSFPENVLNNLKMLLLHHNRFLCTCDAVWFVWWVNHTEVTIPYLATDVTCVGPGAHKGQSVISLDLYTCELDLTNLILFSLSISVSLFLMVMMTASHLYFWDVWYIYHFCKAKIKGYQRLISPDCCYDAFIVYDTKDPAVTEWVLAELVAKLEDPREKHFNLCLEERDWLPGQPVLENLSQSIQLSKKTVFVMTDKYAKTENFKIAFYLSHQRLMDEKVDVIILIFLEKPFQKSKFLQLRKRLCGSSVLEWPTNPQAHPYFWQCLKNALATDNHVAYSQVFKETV
Kind of data set: In vivo target occupancy at TLR7 in cynomolgus monkey assessed as fold increase in IFIT2 mRNA expression in nasal scrape at 3 ng/kg administered intranasally incubated for 24 hrs by TaqMan analysis (reference value: 2.1). The data set is classed as functional. On the technique in general: In qPCR the cycle at which signal appears reflects the starting amount.

Data set [2] is described as follows: Toxicity in mouse assessed as dermal irritancy at 1000 ug/ml administered intranasally after 4 hrs. The settings on record: in vivo, inhaled_or_intranasal, dose 1000 µg/ml.

The term EC50 denotes the concentration giving half of the maximal effect. With `CCC[C@H](C)Oc1nc(N)c2[nH]c(=O)n(CCCCCN3CCCCC3)c2n1` [GSK-2245035], on Toll-like receptor 8, the EC50 was 20 µM. Also, the fold change (FC) in data set [1] was 108. For the same compound, the Activity result in data set [2] is given as “Non-Toxic”.

The record behind these values is ChEMBL document CHEMBL5252515, “Discovery of 6-Amino-2-{[(1S)-1-methylbutyl]oxy}-9-[5-(1-piperidinyl)pentyl]-7,9-dihydro-8H-purin-8-one (GSK2245035), a Highly Potent and Selective Intranasal Toll-Like Receptor 7 Agonist for the Treatment of Asthma” (J Med Chem, 2016).
